Measured values published in patent US9234176B2, “Chemically defined production of cardiomyocytes from pluripotent stem cells” (The Board of Trustees of the Leland Stanford Junior …, priority 2012, dated 2016).

Test system: hiPSC
Assay: Defined matrices: pluripotent growth and cardiac differentiation of hiPSC
Type: cell-based, human
Excerpt: Determination that Laminin-Based Matrices are Most Suitable for Cardiac Differentiation. […] This lack of long-term adhesion during the differentiation was present irrelevant of vitronectin peptide concentrations and could be resolved by passaging and replating onto new matrix, yet we sought to find a more suitable solution. We assessed culture of hiPSC in E8 medium and subsequent differentiation on other defined matrices: recombinant human (rH) Ecadherin, rH vitronectin, rH laminin-521, truncated rH laminin-511, human fibronectin, or a fibronectin mimetic (FIG. 2a). Chemically defined long-term maintenance of pluripotency in E8 was successful on all surfaces except those based on fibronectin. […] Cells cultured on each of the five successful matrices (>6 passages) were then differentiated in CDM3. Although all matrices produced efficient differentiations (FIG. 2b), the laminin matrices were both successful for maintaining long-term adhesion during chemically defined cardiac differentiation (FIG. 2d), but prohibitively expensive for large-scale application. […]
Growth assays. To assess cell growth, cells were counted using a Countess automated cell counter (Life Technologies). […] Cumulative population doublings was calculated using the formula n=3.32 [log10(N/N0)].
Matrices. […] Matrices were assessed on both 6-well polystyrene tissue culture plates and untreated plates (both from Greiner). […]

recombinant laminin-521: recombinant human laminin-521 matrix
support of pluripotent hiPSC growth and long-term adherence of CMs: most successful
